{"source": "patent US20060269924A1", "about": "“Modulation of telomere-initiated cell signaling” (TRUSTEES OF BOSTON UNIVERSITY, priority 2003, published 2006)", "type_in_all_cases": "cell-based, human", "key": {"[1]": {"test_system": "cdk4^R24C R2F fibroblasts", "test": "SA-β-Gal staining, cdk4^R24C R2F fibroblasts", "details": "40 μM, 1 week", "protocol": "(§1) FIG. 12a: Immunoblot analysis of p53DD and cdk4^R24C expression. Cells were collected for protein analysis by western blot using 30 μg total protein and probed for total p53 and cdk4. Lanes 1, 2, 3 and 4 contain protein samples from R2F, R2F (p53DD), R2F (cdk4^R24C) and R2F (p53DD/cdk4^R24C) fibroblasts, respective. β-actin was used as a loading control. FIG. 12b: Contribution of p53 and pRb pathways to T-oligo-induced SA-β-Gal activity. R2F fibroblasts and derived transductants were treated with diluent or 40 μM T-oligo for one week and then assayed for SA-β-Gal activity. FIG. 12c: Quantitative analysis of SA-β-Gal positive cells. Cells expressing SA-β-Gal activity were counted and presented as percentage of total cells in the cultures. Averages and standard deviations were calculated from 3 representative fields from each of 3 independent experiments.\n(§2) R2F newborn dermal fibroblasts and derived p53DD, […] and p53DD/cdk4^R24C transductants (a generous gift from Dr. James G. Rheinwald of Harvard Medical School) lack a functional p53 pathway, pRb pathway, and both pathways respectively.\n(§3) Cells were treated once with diluent alone, 40 μM T-oligo or 40 μM complementary oligo for 1 week without re-feeding. […]\n(§4) Cells were treated with either diluent or 40 μM T-oligo for 1 week and then assessed for SA-β-Gal activity. […]"}, "[2]": {"test_system": "R2F (p53DD/cdk4^R24C) fibroblasts", "test": "SA-β-Gal staining, p53DD/cdk4^R24C R2F fibroblasts", "details": "R2F fibroblasts expressing both p53DD and cdk4^R24C, 40 μM, 1 week", "protocol": "as §1, §2, §3, §4"}, "[3]": {"test_system": "HT-1080 fibrosarcoma cells", "test": "Telomere length (mean TRF length) assay", "details": "HT-1080 cells, 40 μM, 4 days", "protocol": "Cells were treated as described in FIG. 13a. Lanes 1, 2, 3 contain genomic DNA from cells treated with diluent (D), T-oligo (T), or complementary oligo (C). Lanes 4 and 5 contain high (H) molecular and low (L) molecular weight standard telomeric DNA.\nHT-1080 fibrosarcoma cells were treated with diluent, 40 μM T-oligo or 40 μM complementary oligo for 4 days and then the genomic DNA was isolated using the DNeasy Tissue Kit (Qiagen, Valencia, Calif.). Telomere length was determined using the Telo TTAGGG Telomere Length Assay (Roche Molecular Biochemicals, Indianapolis, Ind.) following the protocol supplied by the manufacturer. […] Terminal restriction fragments (TRF) were detected by chemiluminescence. The mean TRF length was calculated by scanning the exposed X-ray film with a densitometer and calculated as previously described (Harley et al. [1990] Telomeres shorten during ageing of human fibroblasts. Nature 345, 458-460).\nTo determine the affect of T-oligos on the mean telomere length (MTL) in HT-1080 cells, cells were analyzed after treatment with T-oligo for 4 days which corresponded to the time that the senescent phenotype was readily observed. […] The less than 100 bp difference in calculated MTL is within the range of experimental variation and is not significant."}}, "note": "{P} = phosphate", "data": [{"substance": "pGTTAGGGTTAG (DNA, 5' {P}, backbone not given here; listed as Homo sapiens) [Oligonucleotide 11mer-1]", "values": [{"measurement": "SA-β-Gal positive cells", "setting": "[1]", "value": "60±5", "unit": "%"}, {"measurement": "SA-β-Gal positive cells", "setting": "[2]", "value": "7±1", "unit": "%"}, {"measurement": "mean telomere length (MTL)", "setting": "[3]", "value": 5.56, "unit": "kb"}]}]}
